Reference: US20130165396A1, “Apple Skin Extracts for Treating Cardiovascular Disease” (NATIONAL RESEARCH COUNCIL OF CANADA, priority 2010, published 2013)
Marks after values point to notes of the source that are not given here.

Columns and labels:
Type in all cases: biochemical
[1] = tested on: LDL isolated from human plasma; test: TBARS assay, Cu2+-induced LDL oxidation
Experimental: (§1) To remove the inherent antioxidants, purchased LDL was dialyzed using Fisherbrand cellulose dialysis tubing (type T3 membrane, Thermo Fisher Scientific Inc., Ottawa, ON, Canada) against PBS containing 0.138 M NaCl and 0.0027 M KCl (pH 7.4, at 25° C.) at 4° C. for 24 hours. The buffer was changed every six hours. The dialyzed LDL was immediately used or stored at −80° C. in the dark under nitrogen and used within two to three weeks. Protein content of the dialyzed LDL was measured by the Lowry's method (Lowry et al., J. Biol. Chem., 1951, 193: […]) using bovine serum albumin as the standard.
(§2) Two oxidation induction methods were used: copper sulfate and 2,2′-azobis(2-methylpropionamidine)dihydrochloride (AAPH). For both induction systems, 100 μg/mL of final LDL protein concentration was used. LDL was oxidized at the presence of 10 μM final concentration of Cu^2+and 5 mM final concentration of AAPH separately at 37° C. for 4 h in the dark. […] Oxidation was terminated by adding a 1:1 mixture of 1 mM solution of ethylenediaminetetraacetic acid (EDTA) and 1 mM solution of butylated hydroxytoluene (BHT).
(§3) Two main constituents of TAE and oleanolic acid, which is an isomer of ursolic acid, were also used to investigate the concentration-responsiveness. The same concentrations of Cu^2+ and AAPH were used and the oxidation was terminated by a 1:1 mixture of EDTA and BHT as explained earlier under this section.
(§4) TBARS were measured according to the method of Xu et al., J. Food Sci., 2007, 72: S522-S527 with slight modifications. […] The mixture was incubated at 95° C. for 30 min to develop a pink chromogen. After cooling to room temperature tubes were centrifuged at 1500 g for 15 min and the fluorescence was measured using the FLUOstar OPTIMA plate reader (BMG Labtech Inc. Canada). Excitation and emission wavelengths used were 532 and 590 nm, respectively. TBARS activity was expressed as the percent inhibition (Equation 1) of LDL oxidation with comparison to the positive control, where F is fluorescence:
(§5) Percent inhibition (%)=100(Fpositive control−Fsample)/(Fpositive control) (1)

[2] = tested on: LDL isolated from human plasma; test: TBARS assay, AAPH-induced LDL oxidation
Experimental: as §1, §2, §3, §4, §5

[3] = tested on: LDL isolated from human plasma; test: In vitro LDL oxidation inhibition, statements covering both induction systems or both product types
Experimental: as §2, §3
TBARS were measured according to the method of Xu et al., J. Food Sci., 2007, 72: S522-S527 with slight modifications. […]. The mixture was incubated at 95° C. for 30 min to develop a pink chromogen. After cooling to room temperature tubes were centrifuged at 1500 g for 15 min and the fluorescence was measured using the FLUOstar OPTIMA plate reader (BMG Labtech Inc. Canada). Excitation and emission wavelengths used were 532 and 590 nm, respectively. TBARS activity was expressed as the percent inhibition (Equation 1) of LDL oxidation with comparison to the positive control, where F is fluorescence:
The formation of hydroperoxides was measured by the lipid compatible formulation of the Peroxoquant™ quantitative peroxide assay kit. LDL oxidation was induced by Cu^2+ or AAPH and incubated for 4 hrs at 37° C. in the dark. Hydroperoxides were measured following the manufacturer's instructions. Absorbance was measured at 595 nm using FLUOstar OPTIMA plate reader (BMG Labtech, Durham, N.C., USA). Activity of hydroperoxides was expressed as the percent inhibition of LDL with comparison to the positive control (Equation 1).

[4] = 50 mg L^−1, comparison of constituent compounds and metabolites (Table 4)

Compound | Percent inhibition of secondary LDL oxidation products, Cu induction [1, 4] | Percent inhibition of secondary LDL oxidation products, AAPH induction [2, 4] | Percent inhibition of secondary LDL oxidation products, Cu induction ([1]; 1 mg L^−1) | Percent inhibition of secondary LDL oxidation products, Cu induction ([1]; 10 mg L^−1) | Percent inhibition of secondary LDL oxidation products, Cu induction ([1]; 50 mg L^−1) | Percent inhibition of secondary LDL oxidation products, Cu induction ([1]; 100 mg L^−1) | Percent inhibition of secondary LDL oxidation products, Cu induction ([1]; 200 mg L^−1) | Percent inhibition of secondary LDL oxidation products, Cu induction ([1]; 300 mg L^−1) | Percent inhibition of secondary LDL oxidation products, Cu induction ([1]; 400 mg L^−1) | Percent inhibition of secondary LDL oxidation products, Cu induction ([1]; 500 mg L^−1) | Percent inhibition of secondary LDL oxidation products, AAPH induction ([2]; 1 mg L^−1) | Percent inhibition of secondary LDL oxidation products, AAPH induction ([2]; 10 mg L^−1) | Percent inhibition of secondary LDL oxidation products, AAPH induction ([2]; 50 mg L^−1) | Percent inhibition of secondary LDL oxidation products, AAPH induction ([2]; 100 mg L^−1) | Percent inhibition of secondary LDL oxidation products, AAPH induction ([2]; 200 mg L^−1) | Percent inhibition of secondary LDL oxidation products, AAPH induction ([2]; 300 mg L^−1) | Percent inhibition of secondary LDL oxidation products, AAPH induction ([2]; 400 mg L^−1) | Percent inhibition of secondary LDL oxidation products, AAPH induction ([2]; 500 mg L^−1) | further results
O=C(/C=C/c1ccc(O)c(O)c1)O[C@@H]1C[C@](O)(C(=O)O)C[C@@H](O)[C@H]1O [Chlorogenic acid] | 126.30 ± 1.45^a % | 100.18 ± 3.29^b % | – | – | – | – | – | – | – | – | – | – | – | – | – | – | – | – | –
C[C@H]1[C@H](C)CC[C@]2(C(=O)O)CC[C@]3(C)C(=CC[C@@H]4[C@@]5(C)C[C@@H](O)[C@H](O)C(C)(C)[C@@H]5CC[C@]43C)[C@H]12 [Corosolic acid] | – | – | −17.84 ± 5.15^ab % | 3.17 ± 4.20^a % | −6.04 ± 3.62^ab % | −24.94 ± 2.90^be % | −54.17 ± 5.21^d % | −49.93 ± 3.74^d % | −39.57 ± 3.91^cd % | −0.50 ± 5.98^a % | 6.09 ± 1.83^d % | 5.69 ± 1.46^d % | 32.80 ± 5.49^bc % | 29.84 ± 2.89^c % | 45.49 ± 3.46^ab % | 47.55 ± 1.17^a % | 51.18 ± 1.73^a % | 46.63 ± 3.91^a % | Protection against Cu2+-induced LDL oxidation (statement) [1]: did not show any protection; AAPH-induced LDL oxidation inhibition ([2]; greater than 200 mg L^−1): more than 40%
OC[C@H]1O[C@@H](Oc2cc3c(O)cc(O)cc3[o+]c2-c2ccc(O)c(O)c2)[C@H](O)[C@@H](O)[C@H]1O [Cyanidin-3-O-galactoside] | 104.31 ± 2.25^ab % | 70.43 ± 1.23^d % | – | – | – | – | – | – | – | – | – | – | – | – | – | – | – | – | Cu2+-induced LDL oxidation (statement) ([1]; 50 mg L^−1): promising results
COc1cc(-c2oc3cc(O)cc(O)c3c(=O)c2OC2OC(C(=O)O)C(O)C(O)C2O)ccc1O (stereo not drawn) [Isorhamnetin-3-glucuronic acid] | 20.28 ± 1.49^e % | 51.79 ± 1.27^e % | – | – | – | – | – | – | – | – | – | – | – | – | – | – | – | – | –
CC1(C)CC[C@]2(C(=O)O)CC[C@]3(C)C(=CC[C@@H]4[C@@]5(C)CC[C@H](O)C(C)(C)[C@@H]5CC[C@]43C)[C@@H]2C1 [Oleanolic acid] | – | – | 12.06 ± 2.46^a % | −3.01 ± 3.42^ab % | 12.30 ± 2.73^a % | −13.37 ± 5.59^b % | −47.00 ± 3.05^c % | −94.49 ± 4.34^d % | −74.73 ± 5.82^d % | −78.32 ± 4.31^d % | 17.57 ± 8.28^b % | 31.90 ± 0.95^ab % | 37.43 ± 1.98^a % | 30.69 ± 3.22^ab % | 16.75 ± 4.41^b % | 26.13 ± 3.09^ab % | 26.20 ± 4.41^ab % | 29.17 ± 1.58^ab % | Protection for AAPH-induced LDL oxidation ([2]; 10-100 mg L^−1): around 30%
O=c1c(O[C@@H]2O[C@H](CO)[C@H](O)[C@H](O)[C@H]2O)c(-c2ccc(O)c(O)c2)oc2cc(O)cc(O)c12 [Quercetin-3-O-galactoside] | 105.34 ± 0.30^ab % | 141.68 ± 1.43^a % | 27.61 ± 0.58^b % | 89.88 ± 0.50^a % | 92.73 ± 0.56^a % | – | – | – | – | – | 49.08 ± 3.10^b % | 86.65 ± 1.82^a % | 92.23 ± 1.87^a % | – | – | – | – | – | Percent inhibition of secondary LDL oxidation products, Cu induction ([1]; 0.0005 mg L^−1): 6.39 ± 2.33^c %; Percent inhibition of secondary LDL oxidation products, Cu induction ([1]; 0.001 mg L^−1): 4.88 ± 0.76^c %; Percent inhibition of secondary LDL oxidation products, Cu induction ([1]; 0.005 mg L^−1): 4.64 ± 1.50^c %; Percent inhibition of secondary LDL oxidation products, Cu induction ([1]; 0.01 mg L^−1): −6.51 ± 2.90^d %; Percent inhibition of secondary LDL oxidation products, Cu induction ([1]; 0.5 mg L^−1): 6.20 ± 1.77^c %; Percent inhibition of secondary LDL oxidation products, Cu induction ([1]; 5 mg L^−1): 87.87 ± 0.32^a %; Percent inhibition of secondary LDL oxidation products, Cu induction ([1]; 25 mg L^−1): 91.49 ± 0.88^a %; Percent inhibition of secondary LDL oxidation products, AAPH induction ([2]; 0.0005 mg L^−1): −29.51 ± 2.43^c %; Percent inhibition of secondary LDL oxidation products, AAPH induction ([2]; 0.001 mg L^−1): −64.01 ± 6.16^c %; Percent inhibition of secondary LDL oxidation products, AAPH induction ([2]; 0.005 mg L^−1): −35.63 ± 5.21^c %; Percent inhibition of secondary LDL oxidation products, AAPH induction ([2]; 0.01 mg L^−1): −34.82 ± 4.98^c %; Percent inhibition of secondary LDL oxidation products, AAPH induction ([2]; 0.5 mg L^−1): 37.82 ± 7.30^b %; Percent inhibition of secondary LDL oxidation products, AAPH induction ([2]; 5 mg L^−1): 88.62 ± 2.58^a %; Percent inhibition of secondary LDL oxidation products, AAPH induction ([2]; 25 mg L^−1): 85.58 ± 2.24^a %; Pro-oxidant effect (statement) ([3]; 5-50 mg L^−1): did not show any pro-oxidant effect; LDL oxidation inhibition for both the induction systems ([3]; concentrations greater than 5 mg L^−1): more than 85%
O=c1c(O[C@@H]2O[C@H](CO)[C@@H](O)[C@H](O)[C@H]2O)c(-c2ccc(O)c(O)c2)oc2cc(O)cc(O)c12 [Quercetin-3-O-glucoside] | 104.13 ± 0.48^ab % | 138.25 ± 1.97^a % | – | – | – | – | – | – | – | – | – | – | – | – | – | – | – | – | –
O=c1c(O)c(-c2ccc(O)c(OS(=O)(=O)O)c2)oc2cc(O)cc(O)c12 [Quercetin-3′-sulfate] | 38.11 ± 1.84^de % | 59.63 ± 1.90^e % | – | – | – | – | – | – | – | – | – | – | – | – | – | – | – | – | –
C[C@H]1[C@H](C)CC[C@]2(C(=O)O)CC[C@]3(C)C(=CC[C@@H]4[C@@]5(C)CC[C@H](O)C(C)(C)[C@@H]5CC[C@]43C)[C@H]12 [Ursolic acid] | – | – | 7.10 ± 1.52^c % | −5.10 ± 0.69^d % | 19.08 ± 2.59^c % | 16.73 ± 1.49^c % | 36.62 ± 5.69^a % | 34.93 ± 5.08^ab % | 42.45 ± 1.02^a % | 39.63 ± 3.85^a % | −16.71 ± 1.72^d % | −16.51 ± 2.32^d % | 24.25 ± 2.54^c % | 54.07 ± 2.88^b % | 49.91 ± 3.26^b % | 71.45 ± 5.14^a % | 54.20 ± 2.50^b % | 46.52 ± 2.39^b % | Protection against Cu2+-induced LDL oxidation (statement) [1]: a certain degree of protection; Concentration giving a greater protection against AAPH-induced LDL oxidation [2]: 300 mg/L; Inhibiting peroxyl-radical-induced LDL oxidation compared to corosolic and oleanolic acids (statement) [2]: more effective; Protection for AAPH-induced LDL oxidation ([2]; beyond 100 mg L^−1): more than 40%
